Results published in ChEMBL document CHEMBL1144633, “Affinity-based ranking of ligands for DPP-4 from mixtures” (Bioorg Med Chem Lett, 2007).
pIC50: −log10 of the molar value.

Biological target: Dipeptidyl peptidase 4 (Homo sapiens, UniProt P27487)
Assay: Inhibition of DPP4

Dipeptidyl peptidase 4, sequence (P27487 whole entry): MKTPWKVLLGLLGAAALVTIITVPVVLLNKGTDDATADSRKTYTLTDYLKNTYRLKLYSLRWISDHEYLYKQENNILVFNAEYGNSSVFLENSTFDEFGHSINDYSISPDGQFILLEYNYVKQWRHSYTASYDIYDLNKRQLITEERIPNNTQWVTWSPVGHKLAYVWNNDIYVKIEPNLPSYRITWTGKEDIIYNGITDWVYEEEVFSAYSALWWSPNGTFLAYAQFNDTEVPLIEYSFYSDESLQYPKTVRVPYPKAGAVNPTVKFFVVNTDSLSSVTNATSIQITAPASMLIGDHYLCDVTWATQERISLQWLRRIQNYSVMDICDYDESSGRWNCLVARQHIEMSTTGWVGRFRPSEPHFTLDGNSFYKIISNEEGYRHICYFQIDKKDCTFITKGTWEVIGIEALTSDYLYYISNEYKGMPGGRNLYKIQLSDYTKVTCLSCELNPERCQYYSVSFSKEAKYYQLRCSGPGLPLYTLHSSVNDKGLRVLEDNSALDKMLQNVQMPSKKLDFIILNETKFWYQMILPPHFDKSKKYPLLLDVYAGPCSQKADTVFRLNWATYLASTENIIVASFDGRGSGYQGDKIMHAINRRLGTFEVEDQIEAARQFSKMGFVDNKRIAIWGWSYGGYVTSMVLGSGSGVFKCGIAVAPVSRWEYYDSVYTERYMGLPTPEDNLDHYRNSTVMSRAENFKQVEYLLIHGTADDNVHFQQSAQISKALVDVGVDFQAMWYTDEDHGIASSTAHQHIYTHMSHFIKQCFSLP

| pIC50 | SMILES |
| --- | --- |
| 8.10 | CC(C)[C@H](Oc1ccc(CNC(=O)[C@@H]2CCCN2C(=O)C[C@H](N)Cc2cc(F)c(F)c(F)c2F)cc1)C(=O)O |
| 6.51 | O=C([C@@H]1Cc2ccc(-c3cccc(-c4nnn[nH]4)c3)cc2CN1)N1CC[C@H](F)C1 |
| 5.88 | N[C@@H](CC(=O)N1CCn2nccc21)Cc1cc(F)ccc1F |
| 6.00 | N[C@H](C(=O)N1CCC(F)(F)C1)[C@@H]1CCN(S(=O)(=O)c2ccc(OC(F)(F)F)cc2)C1 |
| 6.14 | N[C@@H](CC(=O)N1CCC[C@H]1C(=O)NCc1ccc(C(F)(F)F)cc1)Cc1ccccc1F |
| 6.06 | COc1cc(CNC(=O)[C@@H]2CCCN2C(=O)C[C@H](N)Cc2ccccc2F)ccc1O |
| 5.70 | C=CCC(C(=O)N1CCn2c(nnc2C(F)(F)F)C1)[C@H](N)Cc1cc(F)c(F)cc1F (stereo partly specified) |
| 5.90 | N[C@@H](CC(=O)N1CCN(c2ccc(Cl)cc2)CC1)Cc1ccccc1F |
| 5.85 | N[C@@H](CC(=O)N1CCn2cc(C(F)(F)F)nc2C1c1ccc(F)cc1)Cc1ccc(F)c(F)c1 (stereo partly specified) |
| 5.66 | C=COCC(=O)N1CCN(C(=O)C[C@H](N)Cc2ccccc2F)CC1 |
| 6.11 | CSc1cc(F)c(C[C@@H](N)CC(=O)N2CCn3c(nnc3C(F)(F)F)C2)cc1F |
